Structures are written as SMILES.

From ChEMBL document CHEMBL5316344, “Homologation of the Alkyl Side Chain of Antimitotic Phenyl 4-(2-Oxo-3-alkylimidazolidin-1-yl)benzenesulfonate Prodrugs Selectively Targeting CYP1A1-Expressing Breast Cancers Improves Their Stability in Rodent Liver Microsomes” (J Med Chem, 2023) come the findings set out here.

The nature of series [1]: Biodistribution in muscle of nude mouse xenografted with human MCF7 cells at 231 kBq, iv administered as C14-lableled compound and assessed as radioactivity and measured at 3 hrs post dose by digital autoradiographic analysis. Format: ADME, organism-based, Muscle tissue. The note with it: in vivo. Background: In xenograft studies the graft and the host belong to different species.

A short description of series [2]: Biodistribution in stomach of nude mouse xenografted with human MCF7 cells at 231 kBq, iv administered as C14-lableled compound and assessed as radioactivity and measured at 3 hrs post dose by digital autoradiographic analysis. Format: ADME, organism-based. The note with it: in vivo.
The nature of series [3]: Biodistribution in spleen of OF1 mouse at 231 kBq, iv administered as C14-lableled compound and assessed as radioactivity and measured at 1 hr post dose by digital autoradiographic analysis. As to conditions: in vivo; call rule not given here. In kind it is ADME, organism-based.
Series [4] can be described thus: Biodistribution in heart of OF1 mouse at 231 kBq, iv administered as C14-lableled compound and assessed as radioactivity and measured at 1 hr post dose by digital autoradiographic analysis. Format: ADME, organism-based. The note with it: in vivo.
Series [5] can be described thus: Biodistribution in liver of OF1 mouse at 231 kBq, iv administered as C14-lableled compound and assessed as radioactivity and measured at 1 hr post dose by digital autoradiographic analysis. The note with it: in vivo. In kind it is ADME, organism-based.
The nature of series [6]: Biodistribution in brain of nude mouse xenografted with human MCF7 cells at 231 kBq, iv administered as C14-lableled compound and assessed as radioactivity and measured at 3 hrs post dose by digital autoradiographic analysis. In kind it is ADME, organism-based. As to conditions: in vivo.
Series [7] can be described thus: Biodistribution in stomach of OF1 mouse at 231 kBq, iv administered as C14-lableled compound and assessed as radioactivity and measured at 1 hr post dose by digital autoradiographic analysis. In kind it is ADME, organism-based. The note with it: in vivo.
Series [8] is described as follows: Biodistribution in kidney of OF1 mouse at 231 kBq, iv administered as C14-lableled compound and assessed as radioactivity and measured at 1 hr post dose by digital autoradiographic analysis. Format: ADME, organism-based. As to conditions: in vivo.
Series [9] can be described thus: Ratio of drug level in tumor to muscle in nude mouse xenografted with human MCF7 cells at 231 kBq, iv administered as C14-lableled compound and assessed as radioactivity and measured at 3 hrs post dose. In kind it is ADME, organism-based. The note with it: in vivo.
Series [10] in a line: Biodistribution in lungs of nude mouse xenografted with human MCF7 cells at 231 kBq, iv administered as C14-lableled compound and assessed as radioactivity and measured at 3 hrs post dose by digital autoradiographic analysis. Format: ADME, organism-based, Lung. The note with it: in vivo.
Series [11] can be described thus: Biodistribution in lungs of OF1 mouse at 231 kBq, iv administered as C14-lableled compound and assessed as radioactivity and measured at 1 hr post dose by digital autoradiographic analysis. In kind it is ADME, organism-based, Lung. As to conditions: in vivo.
A short description of series [12]: Biodistribution in heart of nude mouse xenografted with human MCF7 cells at 231 kBq, iv administered as C14-lableled compound and assessed as radioactivity and measured at 3 hrs post dose by digital autoradiographic analysis. Format: ADME, organism-based. The note with it: in vivo.
Series [13] in a line: Ratio of drug level in tumor to muscle in nude mouse xenografted with human MCF7 cells at 231 kBq, iv administered as C14-lableled compound and assessed as radioactivity and measured at 1 hr post dose. In kind it is ADME, organism-based. As to conditions: in vivo.
The nature of series [14]: Drug excretion in OF1 mouse feces at 231 kBq, iv administered as C14-lableled compound and assessed as radioactivity and measured at 3 to 6 hrs post dose. Format: ADME, organism-based. As to conditions: in vivo, time 3-6 hrs.
Series [15] in a line: Biodistribution in spleen of nude mouse xenografted with human MCF7 cells at 231 kBq, iv administered as C14-lableled compound and assessed as radioactivity and measured at 3 hrs post dose by digital autoradiographic analysis. In kind it is ADME, organism-based. The note with it: in vivo.
The nature of series [16]: Drug accumulation in tumor of nude mouse xenografted with human MCF7 cells at 231 kBq, iv administered as C14-lableled compound and assessed as radioactivity and measured at 3 hrs post dose by digital autoradiographic analysis. In kind it is ADME, organism-based, Neoplasm. As to conditions: in vivo.
A short description of series [17]: Biodistribution in kidney of nude mouse xenografted with human MCF7 cells at 231 kBq, iv administered as C14-lableled compound and assessed as radioactivity and measured at 3 hrs post dose by digital autoradiographic analysis. In kind it is ADME, organism-based. The note with it: in vivo.
Series [18] can be described thus: Biodistribution in brain of OF1 mouse at 231 kBq, iv administered as C14-lableled compound and assessed as radioactivity and measured at 1 hr post dose by digital autoradiographic analysis. Format: ADME, organism-based. As to conditions: in vivo.
Series [19] in a line: Drug excretion in OF1 mouse urine at 231 kBq, iv administered as C14-lableled compound and assessed as radioactivity and measured at 3 to 6 hrs post dose. The note with it: in vivo, time 3-6 hrs. In kind it is ADME, organism-based.
Series [20] in a line: Drug accumulation in tumor of nude mouse xenografted with human MCF7 cells intravenously at 231 kBq, iv administered as C14-lableled compound and assessed as radioactivity and measured at 1 hr post dose by digital autoradiographic analysis. The note with it: in vivo. Format: ADME, organism-based, Neoplasm.
The nature of series [21]: Biodistribution in muscle of OF1 mouse at 231 kBq, iv administered as C14-lableled compound and assessed as radioactivity and measured at 1 hr post dose by digital autoradiographic analysis. Format: ADME, organism-based, Muscle tissue. As to conditions: in vivo.

In the case of `CCCCN1CCN(c2ccc(S(=O)(=O)Oc3cc(OC)c(OC)c(OC)c3)cc2)[14C]1=O`, the Drug uptake result in series [1] is “Not Active”; in series [2], “Not Active”; in series [3] it was “Active”; in series [4], “Active”; in series [5], “Active”; in [6], “Not Active”. For the same compound, the Drug uptake result in series [7] is given as “Active”; in series [8] it was “Active”; in series [10], “Not Active”; in [11], “Active”; in series [12], “Not Active”; in series [15], “Not Active”. The Drug uptake in series [16] was 0.8%; in [17] it was “Not Active”; in series [18], “Active”; in [20] it was 1.6%; in [21] it was “Active”. Further, the values for the Ratio in series [9] and in [13] were 2.5 and 1.1, respectively. In addition, the Drug excretion entry in series [14] and in series [19] was “Active” each time.
